From patent US20090155875A1, “Methods to Enhance Carbon Monoxide Dehydrogenase Activity and Uses Thereof” (priority 2005, published 2009)

How the values were obtained:
CODH = CODH activity by reduction of methyl viologen coupled to CO oxidation (absorption at 578 nm); assay type: biochemical, R. rubrum
Method: CODH activity was determined by the reduction of methyl viologen coupled to CO oxidation and the concomitant absorption at 578 nm by UV spectrophotometry. CODH activity was measured in an anaerobic reaction mixture containing 50 mM Tris-HCl, 2 mM methyl viologen and 2 mM dithiothreitol at pH 8.7 (Maness, P. C. and Weaver, P. F. (2002) Int. J. Hydrogen Energy 27:1407-11). The cell free, CODH-enriched fraction was prepared as described (Maness, P. C. and Weaver, P. F. (2001) Appl. Microbiol. Biotechnol. 57:751-6). The supernatant was used as the source of CODH enzyme.

Hydrogenase = Hydrogenase activity in whole cells by H2 evolution (gas chromatography); assay type: cell-based, R. rubrum
Method: Hydrogenase activity was determined using whole cells by measuring H2 evolution in an anaerobic reaction mixture containing 2 mM methyl viologen, 0.1% (w/v) Triton X-100 and 50 mM potassium phosphate buffer at pH 7.0. The reaction was initiated by adding 5 mM sodium dithionite. The reaction was incubated 15 minutes at 30° C. in a shaking water bath. The reaction was terminated by addition of 0.1 ml 10% (w/v) tricholoroacetic acid. Hydrogen in the gas phase was determined by gas chromatography as described in Maness, P. C. and Weaver, P. F. (2001) Appl. Microbiol. Biotechnol. 57:751-6.

Chain of CODH (P31896 2-639): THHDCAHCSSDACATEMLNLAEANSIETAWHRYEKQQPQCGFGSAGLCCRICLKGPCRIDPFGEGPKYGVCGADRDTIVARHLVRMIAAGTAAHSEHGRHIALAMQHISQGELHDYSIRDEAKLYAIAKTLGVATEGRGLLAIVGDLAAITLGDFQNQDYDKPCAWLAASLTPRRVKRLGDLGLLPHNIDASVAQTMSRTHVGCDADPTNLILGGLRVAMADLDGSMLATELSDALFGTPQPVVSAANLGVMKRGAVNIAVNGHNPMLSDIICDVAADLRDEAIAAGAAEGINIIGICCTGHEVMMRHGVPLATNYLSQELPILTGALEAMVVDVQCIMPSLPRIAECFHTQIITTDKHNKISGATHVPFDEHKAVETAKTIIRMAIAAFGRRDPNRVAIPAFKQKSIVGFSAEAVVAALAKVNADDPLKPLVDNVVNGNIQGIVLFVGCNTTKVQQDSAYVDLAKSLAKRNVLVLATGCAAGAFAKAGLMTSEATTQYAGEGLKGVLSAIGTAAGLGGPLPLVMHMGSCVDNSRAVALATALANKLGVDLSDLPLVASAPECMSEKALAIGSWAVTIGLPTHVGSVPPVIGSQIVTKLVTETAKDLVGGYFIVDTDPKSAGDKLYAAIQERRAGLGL

hemoglobin: human α- and β-globin chains encoded in pHE2 plasmid; purified from E. coli and added, or expressed in the cells
CODH activity (CODH; addition of hemoglobin (soluble, final 1.5 μM heme), untreated 17.76±2.85, p<9×10^−6): 32.41±4.03 μmol methyl viologen reduction/min/ml
CODH activity (CODH; expression of hemoglobin in the cells (pHE2 plasmid, IPTG induced), p<0.005): 29.60±7.30 μMol methyl viologen reduction/min/ml
hydrogenase activity (Hydrogenase; expression of hemoglobin in the cells, p<0.02): 250.4±89.1 nMol H2/min/mg cell dry weight
hydrogenase activity (Hydrogenase; first statement, printed as 'hemoglobin expression', untreated 137.6±15.0, p<2×10^−6): 266.9±27.0 nMol H2/min/mg cell dry weight
